Data: ChEMBL document CHEMBL4387732, “Capsaicin-like analogue induced selective apoptosis in A2058 melanoma cells: Design, synthesis and molecular modeling” (Bioorg Med Chem, 2019)
Active and inactive are the calls of the source. No cut-off for these calls is given here.

Legend:
[1] = Selectivity index, ratio of IC50 for human T75 cells to IC50 for human A2058 cells
SK-MEL-25 = assay: Cytotoxicity against human SK-MEL-25 cells assessed as decrease in cell viability incubated for 24 hrs by MTT assay; assay type: functional, cell-based; settings: SK-MEL-25, 24 h
A2058 [2] = assay: Cytotoxicity against human A2058 cells assessed as decrease in cell viability incubated for 24 hrs by MTT assay; assay type: functional, cell-based; settings: A2058, 24 h
MCF7 = assay: Cytotoxicity against human MCF7 cells assessed as decrease in cell viability incubated for 24 hrs by MTT assay; assay type: functional, cell-based
HeLa = assay: Cytotoxicity against human HeLa cells assessed as decrease in cell viability incubated for 24 hrs by MTT assay; assay type: functional, cell-based
U-87 MG = assay: Cytotoxicity against human U87 cells assessed as decrease in cell viability incubated for 24 hrs by MTT assay; assay type: functional, cell-based, U-87MG ATCC
B16-F10 [3] = assay: Cytotoxicity against mouse B16F10 cells assessed as decrease in cell viability incubated for 24 hrs by MTT assay; assay type: functional, cell-based; settings: B16-F10, 24 h
[4] = Cytotoxicity against human T75 cells assessed as decrease in cell viability incubated for 24 hrs by MTT assay; assay type: cell-based
[5] = molecular target: T1, Transient receptor potential cation channel subfamily V member 6 (Homo sapiens) (UniProt Q9H1D0); assay: Antagonist activity at human TRPV6 expressed in human HEK293 cells assessed as reduction in Ca2+ transport at 2.5 uM incubated for 5 mins by calcium-5 fluorescence dye-based FLIPR assay; assay type: cell-based
T1 sequence (whole entry): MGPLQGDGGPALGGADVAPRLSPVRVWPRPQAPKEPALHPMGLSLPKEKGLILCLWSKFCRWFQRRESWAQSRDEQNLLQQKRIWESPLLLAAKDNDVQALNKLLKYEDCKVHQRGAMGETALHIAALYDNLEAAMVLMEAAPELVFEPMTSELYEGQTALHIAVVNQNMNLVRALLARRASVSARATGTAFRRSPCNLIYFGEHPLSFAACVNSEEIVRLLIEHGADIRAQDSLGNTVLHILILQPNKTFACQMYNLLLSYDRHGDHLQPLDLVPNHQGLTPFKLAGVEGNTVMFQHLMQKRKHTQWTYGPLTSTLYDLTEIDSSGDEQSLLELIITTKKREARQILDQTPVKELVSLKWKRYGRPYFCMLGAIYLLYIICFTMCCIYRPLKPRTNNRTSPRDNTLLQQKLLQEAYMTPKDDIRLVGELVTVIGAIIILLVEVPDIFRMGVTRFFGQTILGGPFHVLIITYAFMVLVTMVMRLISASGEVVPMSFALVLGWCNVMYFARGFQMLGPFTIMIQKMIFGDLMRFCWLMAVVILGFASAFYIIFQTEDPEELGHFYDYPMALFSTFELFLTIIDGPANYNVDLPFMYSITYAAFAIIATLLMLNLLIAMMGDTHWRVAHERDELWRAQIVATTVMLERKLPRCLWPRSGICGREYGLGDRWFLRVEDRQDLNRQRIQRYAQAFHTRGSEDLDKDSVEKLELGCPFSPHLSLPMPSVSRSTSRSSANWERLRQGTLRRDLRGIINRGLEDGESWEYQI

B16-F10 [6] = assay: Cell cycle arrest in mouse B16F10 cells assessed as variation in subG0/G1 population at 12.5 to 50 uM incubated for 24 hrs by propidium iodide staining-based flow cytometric analysis; assay type: functional
A2058 [7] = assay: Cell cycle arrest in human A2058 cells assessed as accumulation of cells in subG0/G1 phase at 12.5 to 50 uM incubated for 24 hrs by propidium iodide staining-based flow cytometric analysis; assay type: functional
B16-F10 [8] = assay: Cell cycle arrest in mouse B16F10 cells assessed as increase the G0/G1 phase incubated for 24 hrs by propidium iodide staining-based flow cytometric analysis; assay type: functional
A2058 [9] = assay: Induction of apoptosis in human A2058 cells assessed as increase in cleaved caspase 3 expression level incubated for 6 hrs by Western blot analysis; assay type: functional, cell-based
A2058 [10] = assay: Cytotoxicity against human A2058 cells assessed as alteration in cell morphology incubated for 24 hrs by microscopic method; assay type: functional, cell-based
A2058 [11] = assay: Cytotoxicity against human A2058 cells assessed as loss of cell adhesion incubated for 24 hrs by microscopic method; assay type: functional, cell-based
A2058 [12] = assay: Cytotoxicity against human A2058 cells assessed as induction of withdrawal of cytoplasm incubated for 24 hrs by microscopic method; assay type: functional, cell-based
A2058 [13] = assay: Cytotoxicity against human A2058 cells assessed as loss of refringence incubated for 24 hrs by microscopic method; assay type: functional, cell-based
A2058 [14] = assay: Cytotoxicity against human A2058 cells assessed as marked formation of apoptotic bodies incubated for 24 hrs by microscopic method; assay type: functional, cell-based
B16-F10 [15] = assay: Cytotoxicity against mouse B16F10 cells assessed as cell cycle arrest incubated for 24 hrs by microscopic method; assay type: functional, cell-based
A2058 [16] = assay: Cell cycle arrest in human A2058 cells assessed as accumulation of cells in G0/G1 phase incubated for 24 hrs by propidium iodide staining-based flow cytometric analysis; assay type: functional
A2058 [17] = assay: Induction of apoptosis in human A2058 cells assessed as ratio of beta-actin to B-RAF expression incubated for 1 hrs by Western blot analysis; assay type: functional
A2058 [18] = assay: Induction of apoptosis in human A2058 cells assessed as ratio of beta-actin to B-RAF expression incubated for 3 hrs by Western blot analysis; assay type: functional
A2058 [19] = assay: Induction of apoptosis in human A2058 cells assessed as ratio of beta-actin to B-RAF expression incubated for 6 hrs by Western blot analysis; assay type: functional
A2058 [20] = assay: Induction of apoptosis in human A2058 cells assessed as ratio of beta-actin to C-RAF expression incubated for 1 hrs by Western blot analysis; assay type: functional
A2058 [21] = assay: Induction of apoptosis in human A2058 cells assessed as ratio of beta-actin to C-RAF expression incubated for 3 hrs by Western blot analysis; assay type: functional
A2058 [22] = assay: Induction of apoptosis in human A2058 cells assessed as ratio of beta-actin to C-RAF expression incubated for 6 hrs by Western blot analysis; assay type: functional
A2058 [23] = assay: Induction of apoptosis in human A2058 cells assessed as ratio of beta-actin to BCL-XL expression incubated for 1 hrs by Western blot analysis; assay type: functional
A2058 [24] = assay: Induction of apoptosis in human A2058 cells assessed as ratio of beta-actin to BCL-XL expression incubated for 3 hrs by Western blot analysis; assay type: functional
A2058 [25] = assay: Induction of apoptosis in human A2058 cells assessed as ratio of beta-actin to BCL-XL expression incubated for 6 hrs by Western blot analysis; assay type: functional
A2058 [26] = assay: Induction of apoptosis in human A2058 cells assessed as ratio of beta-actin to caspase 3 expression incubated for 1 hrs by Western blot analysis; assay type: functional
A2058 [27] = assay: Induction of apoptosis in human A2058 cells assessed as ratio of beta-actin to caspase 3 expression incubated for 3 hrs by Western blot analysis; assay type: functional
A2058 [28] = assay: Induction of apoptosis in human A2058 cells assessed as ratio of beta-actin to caspase 3 expression incubated for 6 hrs by Western blot analysis; assay type: functional
[29] = molecular target: T2, Transient receptor potential cation channel subfamily V member 1 (Homo sapiens, UniProt Q8NER1); assay: Agonist activity at human TRPV1 expressed in HEK293T cells assessed as increase in Ca2+ transport incubated for 5 mins by calcium-5 fluorescence dye-based FLIPR assay; assay type: cell-based
HEK-293T = assay: Effect on Ca2+ transport in human HEK293T cells incubated for 5 mins by calcium-5 fluorescence dye-based FLIPR assay; assay type: functional, cell-based
[30] = molecular target: T2, Transient receptor potential cation channel subfamily V member 1; assay: Agonist activity at human TRPV1 expressed in human HEK293T cells assessed as increase in Ca2+ transport at 10 uM incubated for 5 mins in presence of TRPV1 antagonist capsazepine by calcium-5 fluorescence dye-based FLIPR assay; assay type: cell-based
[31] = molecular target: T1, Transient receptor potential cation channel subfamily V member 6 (Homo sapiens); assay: Agonist activity at human TRPV6 expressed in human HEK293 cells assessed as increase in Ca2+ transport at 50 uM incubated for 5 mins by calcium-5 fluorescence dye-based FLIPR assay; assay type: cell-based
Mus musculus = assay: In-vivo activation of TRPV1 receptor in Swiss mouse assessed as induction of nociception by measuring paw flinching/licking response at 5.2 nmol/paw administrated via intraplantar route and measured for first 5 mins post treatment; assay type: functional, organism-based
[32] = molecular target: T1, Transient receptor potential cation channel subfamily V member 6 (Homo sapiens); assay: Agonist activity at human TRPV6 expressed in human HEK293 cells assessed as increase in Ca2+ transport at 100 nM incubated for 5 mins by calcium-5 fluorescence dye-based FLIPR assay; assay type: cell-based

T2 sequence (Q8NER1 whole entry): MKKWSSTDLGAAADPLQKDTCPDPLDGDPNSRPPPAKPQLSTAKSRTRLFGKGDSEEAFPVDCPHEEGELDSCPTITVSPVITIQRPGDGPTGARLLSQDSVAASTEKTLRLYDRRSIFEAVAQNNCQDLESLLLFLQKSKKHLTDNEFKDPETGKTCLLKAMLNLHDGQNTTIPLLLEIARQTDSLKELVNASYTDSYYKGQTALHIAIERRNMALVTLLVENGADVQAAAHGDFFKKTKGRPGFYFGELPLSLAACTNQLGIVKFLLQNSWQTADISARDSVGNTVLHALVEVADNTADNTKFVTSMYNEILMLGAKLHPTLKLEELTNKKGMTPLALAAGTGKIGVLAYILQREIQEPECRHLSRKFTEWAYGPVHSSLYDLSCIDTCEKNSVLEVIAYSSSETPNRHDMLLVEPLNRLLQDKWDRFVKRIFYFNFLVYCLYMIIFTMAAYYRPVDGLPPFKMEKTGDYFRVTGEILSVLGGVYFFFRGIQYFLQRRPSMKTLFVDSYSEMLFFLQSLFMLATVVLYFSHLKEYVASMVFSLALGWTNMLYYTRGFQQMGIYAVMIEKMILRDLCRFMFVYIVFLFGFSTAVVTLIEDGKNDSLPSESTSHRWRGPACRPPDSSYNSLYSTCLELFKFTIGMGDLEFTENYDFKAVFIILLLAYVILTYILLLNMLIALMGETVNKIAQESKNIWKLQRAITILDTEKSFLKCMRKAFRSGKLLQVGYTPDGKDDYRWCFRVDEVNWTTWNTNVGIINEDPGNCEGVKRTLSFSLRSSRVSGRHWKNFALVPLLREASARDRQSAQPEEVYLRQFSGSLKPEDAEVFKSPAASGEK

COc1cc(CNC(=O)Nc2ccc([N+](=O)[O-])cc2)ccc1O
Ratio IC50 [1]: >1.1 | IC50 (SK-MEL-25): 98.7 µM | IC50 (A2058 [2]): 98.2 µM | Activity (MCF7): inactive | Activity (HeLa): inactive | IC50 (U-87 MG): 98.5 µM | IC50 (B16-F10 [3]): > 100 µM | IC50 [4]: > 100 µM

Cc1cccc([C@H]2CC[C@@H](N3CCN(c4cccnc4)CC3)CC2)c1
inhibition [5]: Active

CCCCCCNC(=S)NCc1ccc2c(c1)OCO2
Activity (B16-F10 [6]): inactive | Ratio IC50 [1]: >1.8 | Activity (A2058 [7]): Active | Activity (B16-F10 [8]): Dose-dependent effect | Activity (A2058 [9]): Active | IC50 (SK-MEL-25): 67.2 µM | IC50 (A2058 [2]): 55.2 µM | Activity (MCF7): inactive | Activity (HeLa): inactive | IC50 (U-87 MG): 87 µM | IC50 (B16-F10 [3]): > 100 µM | IC50 [4]: > 100 µM | Activity (A2058 [10]): Active | Activity (A2058 [11]): Active | Activity (A2058 [12]): Active | Activity (A2058 [13]): Active | Activity (A2058 [14]): Active | Activity (B16-F10 [15]): Active | Activity (A2058 [16]): Dose-dependent effect | Ratio (A2058 [17]): 0.45 | Ratio (A2058 [18]): 0.48 | Ratio (A2058 [19]): 0.52 | Ratio (A2058 [20]): 0.6 | Ratio (A2058 [21]): 0.49 | Ratio (A2058 [22]): 0.32 | Ratio (A2058 [23]): 1.22 | Ratio (A2058 [24]): 1.2 | Ratio (A2058 [25]): 0.6 | Ratio (A2058 [26]): 1.18 | Ratio (A2058 [27]): 1.11 | Ratio (A2058 [28]): 0.6 | EC50 [29]: 4.62 µM | Activity (HEK-293T): inactive | Activity [30]: inactive | Activity [31]: inactive | Activity (Mus musculus): inactive

COc1cc(CNC(=O)Nc2ccc(Cl)cc2)ccc1O
Ratio IC50 [1]: >1.18 | IC50 (SK-MEL-25): 90.5 µM | IC50 (A2058 [2]): 84.5 µM | Activity (MCF7): inactive | Activity (HeLa): inactive | IC50 (U-87 MG): 92.5 µM | IC50 (B16-F10 [3]): > 100 µM | IC50 [4]: > 100 µM

COc1cc(CNC(=O)CCCC/C=C/C(C)C)ccc1O [CAPSAICIN]
IC50 (SK-MEL-25): > 100 µM | IC50 (A2058 [2]): > 100 µM | IC50 (U-87 MG): > 100 µM | IC50 (B16-F10 [3]): > 100 µM | IC50 [4]: > 100 µM | Activity (HEK-293T): inactive | Activity [32]: inactive | Activity (Mus musculus): Active

COc1ccc(NC(=O)NCc2ccc(O)c(OC)c2)cc1
Ratio IC50 [1]: >1.08 | IC50 (SK-MEL-25): 91.8 µM | IC50 (A2058 [2]): 92.5 µM | Activity (MCF7): inactive | Activity (HeLa): inactive | IC50 (U-87 MG): > 100 µM | IC50 (B16-F10 [3]): > 100 µM | IC50 [4]: > 100 µM
